Test results published in patent US9428431B2, “Compositions comprising CB receptor agonists, uses thereof and methods for their preparation” (Yissum Research Development Company of the Hebrew …, priority 2008, dated 2016).
Read-outs that look alike come from different tables or passages of the source.

Assays:
[1] = target: T1, CB1 receptor (Rattus norvegicus, UniProt P20272); assay: CB1 receptor binding, [3H]HU-243 displacement, synaptosomal membranes; set-up: species or system Sabra rats
T1 construct: synaptosomal membranes were prepared from the brains of Sabra rats by homogenization and gradient centrifugation; from tissue; host or cells: brain of Sabra rats, synaptosomal membranes
Description: For CB1 receptor binding, synaptosomal membranes were prepared from the brains of Sabra rats by homogenization and gradient centrifugation (Devane et al, 1992). For CB2 receptor binding assay, COS-7 cells were transfected with plasmids containing CB2 cDNA, and crude membranes were prepared (Munro et al, 1993).
Bound and free radioligands were separated by centrifugation. The data were normalized to 100% of specific binding, which was determined with 50 nM unlabeled HU-243.

[2] = tested on: Osteoblastic MC3T3 E1 cells; assay: Stimulation of MC3T3 E1 osteoblastic cell number; assay type: cell-based; conditions: for ligand concentration that doubled cell number: MC3T3 E1 cells, last 46 hours in culture, DMSO solution
Description: Osteoblastic MC3T3 E1 cells were cultured as reported in Miguel et al, 2005. […] Control cultures were treated only with the DMSO solvent (Ofek et al, 2006).

[3] = tested on: OVX mouse model; assay: Rescue of ovariectomy (OVX)-induced trabecular bone loss, μCT of L3 vertebrae; assay type: in vivo
Source text: Data are mean±S.E. obtained in 6 mice per condition. (*) p<0.05.
Using this experimental system for testing bone anabolic activity, OVXed mice are left untreated to allow for bone loss to occur, followed by a treatment period intended for reversal of the bone loss (Alexander et al, 2001).

[4] = target: T1, CB1 receptor; conditions: cited from earlier work
[5] = target: T2, CB2 receptor (Homo sapiens, UniProt P34972); conditions: Hanus et al.; cited from earlier work
T2 construct: expressed in transfected cells; host or cells: COS-7 cells

[6] = tested on: osteoblastogenesis / osteoclastogenesis; conditions: cited from earlier work
[7] = tested on: mice; conditions: cited from earlier work

T1 sequence (P20272 whole entry): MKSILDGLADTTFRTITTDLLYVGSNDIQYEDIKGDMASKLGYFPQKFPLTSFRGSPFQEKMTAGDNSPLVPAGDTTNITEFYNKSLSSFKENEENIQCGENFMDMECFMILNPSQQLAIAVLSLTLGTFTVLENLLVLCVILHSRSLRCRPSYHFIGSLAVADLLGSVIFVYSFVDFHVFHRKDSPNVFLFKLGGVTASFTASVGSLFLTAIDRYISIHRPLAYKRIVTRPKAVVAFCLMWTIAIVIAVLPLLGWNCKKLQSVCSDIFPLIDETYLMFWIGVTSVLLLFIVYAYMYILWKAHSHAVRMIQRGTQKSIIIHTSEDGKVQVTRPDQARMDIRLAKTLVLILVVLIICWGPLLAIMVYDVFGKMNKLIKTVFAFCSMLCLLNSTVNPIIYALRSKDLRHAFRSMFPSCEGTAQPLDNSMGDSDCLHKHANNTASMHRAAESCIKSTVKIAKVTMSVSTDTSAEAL
T2 sequence (P34972 whole entry): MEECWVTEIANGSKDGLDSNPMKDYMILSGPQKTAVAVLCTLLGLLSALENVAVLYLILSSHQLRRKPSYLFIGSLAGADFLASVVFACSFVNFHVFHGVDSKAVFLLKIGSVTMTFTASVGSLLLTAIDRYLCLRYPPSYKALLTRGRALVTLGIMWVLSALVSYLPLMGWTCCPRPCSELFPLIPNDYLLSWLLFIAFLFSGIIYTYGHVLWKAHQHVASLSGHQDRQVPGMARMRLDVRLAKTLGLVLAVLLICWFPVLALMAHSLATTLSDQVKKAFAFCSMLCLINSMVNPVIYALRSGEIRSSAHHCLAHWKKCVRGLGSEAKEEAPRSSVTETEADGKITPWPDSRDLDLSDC

Structure (SMILES)	Ki [1] [µM]	binding to CB1 receptor ([1]; present example)	in vitro skeletal activity compared to HU-308 ([2]; MC3T3 E1 cell number assay) [fold]	ligand concentration that doubled cell number [2]	rescue of OVX-induced trabecular bone loss ([3]; 0.2 mg/Kg/day intraperitoneal for 6 weeks, starting 6 weeks after OVX, L3 vertebrae μCT)	effect compared with reversal of bone volumetric density by parathyroid hormone (1-34) ([3]; comparison with Alexander et al, 2001)	reversal of OVX-induced trabecular bone loss ([3]; 20 mg/Kg/day intraperitoneal for 6 weeks, starting 6 weeks after OVX, L3 vertebrae μCT) [%]	binding to CB1 receptor ([4]; Hanus et al.)	Ki ([4]; read-out: Ki CB1, HU-308, from Hanus et al, 1999) [µM]	binding to CB2 receptor [5]	in vitro osteoblastogenesis [6]	in vitro osteoclastogenesis [6]	OVX-induced bone loss ([7]; another mouse model, Bab et al, 2008)	bone formation ([7]; mice, Ofek et al, 2006)	bone resorption ([7]; mice, Ofek et al, 2006)	ovariectomy (OVX)-induced bone loss ([7]; mice, Ofek et al, 2006)	Kd ([4]; radioligand probe, read-out: dissociation constant for the CB1 receptor) [nM]
CCCCCCC(C)(C)c1cc(OC)c([C@@H]2C=C(CO)C3CC2C3(C)C)c(OC)c1 (single isomer, unassigned; (-)) [HU-433, (−)-2-(3-myrtenyl)-5-dimethylheptyl resorcinol]	> 20	did not bind to CB1 receptor	1000	10^−11 M	significantly rescued almost the entire OVX-induced trabecular bone loss	substantially greater											
CCCCCCC(C)(C)c1cc(OC)c([C@@H]2C=C(CO)[C@@H]3C[C@H]2C3(C)C)c(OC)c1 [HU-308]				10^−8 M			50	did not bind to CB1 receptor	> 10	potent binding to CB2 receptor	stimulates	inhibits	rescues	stimulates bone formation	inhibits bone resorption	attenuating	
CCCCCCC(C)(C)c1cc(O)c2c(c1)OC(C)(C)[C@@H]1CC[C@@H](CO)C[C@@H]21 [[^3H]HU-243]																	0.045 ± 0.007
